Reference: DBAASP
Converted amounts (≈) assume the structure as drawn.

Experiments:
Test in all cases: ≥ marks a high value that may be exact or a test limit, other limits are often not marked, values filed in µg/mL are converted to µM
Escherichia coli BL21 = test system: Escherichia coli BL21
[1] = test system: Pseudomonas aeruginosa PAO1
[2] = test system: Streptococcus pyogenes M1T1 5448
Bacillus subtilis DELTA = test system: Bacillus subtilis DELTA
Candida parapsilosis = test system: Candida parapsilosis
[3] = test system: Escherichia coli DH5alpha
[4] = test system: Zymomonas mobilis ATCC 10988
[5] = test system: Bacillus subtilis ATCC 6051
[6] = test system: Escherichia coli NEB5alpha

MIC (Escherichia coli BL21)	MIC [1]	MIC [2]	MIC (Bacillus subtilis DELTA)	MIC (Candida parapsilosis)	MIC [3]	MIC [4]	MIC [5]	MIC [6]	SMILES
	2.5 µM (≈ 3 µg/mL)		≥ 167 µM	8.33 µM (≈ 9.99 µg/mL)	≥ 167 µM	4.16 µM (≈ 5 µg/mL)			CC[C@H](C)[C@H](NC(=O)[C@H](Cc1ccccc1)NC(=O)[C@H](CCCCN)NC(=O)[C@H](CC(C)C)NC(=O)[C@H](CC(C)C)NC(=O)CN)C(=O)N[C@@H](CCCCN)C(=O)N[C@@H](CCCN=C(N)N)C(=O)N[C@@H](CC(C)C)C(=O)N[C@@H](CC(C)C)C(N)=O [GLLKFIKRLL]
	2.57 µM (≈ 3 µg/mL)		8.57 µM (≈ 9.99 µg/mL)	12.9 µM (≈ 15 µg/mL)	≥ 171 µM	4.29 µM (≈ 5 µg/mL)			CC[C@H](C)[C@H](NC(=O)[C@H](CCCCN)NC(=O)[C@H](CC(C)C)NC(=O)[C@H](CC(C)C)NC(=O)CN)C(=O)N[C@H](C(=O)N[C@@H](CCCCN)C(=O)N[C@@H](CCCN=C(N)N)C(=O)N[C@@H](CC(C)C)C(=O)N[C@@H](CC(C)C)C(N)=O)[C@@H](C)CC [GLLKIIKRLL]

Second part, the compound before the results:

SMILES	MIC (Escherichia coli BL21)	MIC [1]	MIC [2]	MIC (Bacillus subtilis DELTA)	MIC (Candida parapsilosis)	MIC [3]	MIC [4]	MIC [5]	MIC [6]
CC[C@H](C)[C@H](NC(=O)[C@H](Cc1ccccc1)NC(=O)[C@H](C)NC(=O)[C@H](CCCCN)NC(=O)[C@H](CCCCN)NC(=O)[C@H](Cc1c[nH]c2ccccc12)NC(=O)[C@H](CCCN=C(N)N)NC(=O)[C@H](CCCCN)NC(=O)[C@H](CCCN=C(N)N)NC(=O)[C@H](CC(C)C)NC(=O)[C@H](CCC(=O)O)NC(=O)[C@H](CCC(=O)O)NC(=O)[C@H](CC(C)C)NC(=O)[C@H](CC(C)C)NC(=O)[C@H](Cc1ccc(O)cc1)NC(=O)[C@H](CCCCN)NC(=O)[C@@H](NC(=O)[C@H](CC(C)C)NC(=O)[C@H](C)NC(=O)[C@H](CCC(N)=O)NC(=O)[C@H](CCCN=C(N)N)NC(=O)CNC(=O)[C@H](C)N)[C@@H](C)O)C(=O)N[C@@H](C)C(=O)N[C@@H](Cc1c[nH]c2ccccc12)C(=O)O [AGRQALTKYLLEELRKRWKKAFIAW]	1 µM (≈ 3.08 µg/mL)	64 µM (≈ 197 µg/mL)	2 µM (≈ 6.15 µg/mL)						
CC[C@H](C)[C@H](NC(=O)[C@H](C)NC(=O)CNC(=O)[C@H](CCCCN)NC(=O)[C@H](CCC(=O)O)NC(=O)[C@H](CCC(=O)O)NC(=O)[C@H](CC(=O)O)NC(=O)[C@H](CCC(=O)O)NC(=O)[C@H](CC(N)=O)NC(=O)[C@H](CCCN=C(N)N)NC(=O)CNC(=O)[C@H](CCC(N)=O)NC(=O)[C@H](CC(C)C)NC(=O)[C@@H](N)CCCCN)C(=O)N[C@H](C(=O)N[C@@H](CCCCN)C(=O)N[C@H](C(=O)N[C@@H](CCCCN)C(=O)O)C(C)C)C(C)C [KLQGRNEDEEKGAIVKVK]								≥ 1000 µM	≥ 1000 µM
CC[C@H](C)[C@H](NC(=O)[C@H](C)NC(=O)[C@H](C)NC(=O)[C@H](CCCN=C(N)N)NC(=O)[C@H](CC(=O)O)NC(=O)[C@H](CC(N)=O)NC(=O)[C@@H](NC(=O)[C@@H](N)CCCCN)[C@@H](C)O)C(=O)NCC(=O)N[C@@H](CCCCN)C(=O)N[C@@H](CC(C)C)C(=O)N[C@H](C(=O)NCC(=O)N[C@@H](C)C(=O)N[C@H](C(=O)N[C@@H](CO)C(=O)N[C@@H](CO)C(=O)N[C@@H](CC(C)C)C(=O)O)[C@@H](C)O)C(C)C [KTNDRAAIGKLVGATSSL]									≥ 1000 µM
